In paper PMC6406907, “A H2AX–CARP-1 Interaction Regulates Apoptosis Signaling Following DNA Damage” (Cancers, 2019):

Assays:
Format in all cases: cell-based, human
[1] = test system: CARP-1, phospho-JNK1/2, phospho-H2AX; assay: Western blot of CARP-1, phospho-JNK1/2, γH2AX in UOK 262; conditions: 10 μM, UOK 262, WB
Method: (§1) Logarithmically growing cells were either untreated or treated with different agents for various time periods. The cells were lysed to prepare protein extracts. IP was carried out by incubating approximately 1 mg of the protein lysate with appropriate antibodies. The immunoprecipitates were then analyzed by SDS-PAGE, followed by WB with respective, interacting protein. For Gst-pulldown, Gst-H2AX or various His-TAT-HA-tagged CARP-1 peptides were generated in Escherichia coli (E. coli) BL21 cells essentially as described by us previously. Briefly, the competent E. coli BL-21 (DE3) pLysS cells were transformed separately with various recombinant pGEX-4T-1 or pTAT-HA constructs. The transformed cells were then subjected to selection by combined presence of ampicillin and chloramphenicol; various isolates for each transformation were obtained and bacterial lysates were characterized for expression of fusion peptides. Cells from each isolate were grown in 4 mL of LB medium containing ampicillin only until the optical density (OD)600 reached 0.4–0.8. […]
(§2) Here, we utilized human TNBC MDA-MB-468 and human cervical cancer HeLa cells to conduct an MTT-based dose-response analysis using Adriamycin and CFM compounds. […] The cell lysates from the control, untreated, and treated cells were analyzed by WB for expression of CARP-1, phospho-JNK1/2, phospho-H2AX, and poly ADP ribose polymerase (PARP) proteins. […]

[2] = test system: CARP-1, phospho-JNK1/2, phospho-H2AX; assay: Western blot of CARP-1, phospho-JNK1/2, γH2AX in HeLa; conditions: 10 μM, WB
Method: as §1, §2

[3] = test system: CARP-1 interaction with γH2AX; assay: Co-immunoprecipitation of myc-His-CARP-1 with γH2AX; conditions: for interaction of wild-type CARP-1 with γH2AX: MDA-MB-468 cells expressing myc-His-tagged CARP-1 (WT), IP/WB; for interaction of CARP-1 (Δ600–650) with γH2AX: in-frame deletion of CARP-1 amino acids 600–650, IP/WB
Method: Logarithmically growing cells were either untreated or treated with different agents for various time periods. The cells were lysed to prepare protein extracts. IP was carried out by incubating approximately 1 mg of the protein lysate with appropriate antibodies. The immunoprecipitates were then analyzed by SDS-PAGE, followed by WB with respective, interacting protein. For Gst-pulldown, Gst-H2AX or various His-TAT-HA-tagged CARP-1 peptides were generated in Escherichia coli (E. coli) BL21 cells essentially as described by us previously. Briefly, the competent E. coli BL-21 (DE3) pLysS cells were transformed separately with various recombinant pGEX-4T-1 or pTAT-HA constructs. The transformed cells were then subjected to selection by combined presence of ampicillin and chloramphenicol; various isolates for each transformation were obtained and bacterial lysates were characterized for expression of fusion peptides. Cells from each isolate were grown in 4 mL of LB medium containing ampicillin only until the optical density (OD)600 reached 0.4–0.8. Expression of fusion peptides was induced over 2–4 h incubation periods after Isopropyl β-D-1-thiogalactopyranoside (IPTG) addition. The cells were harvested, and pellets were stored at −80 °C overnight. The cell pellets were then lysed in 100–400 μL of bacterial protein extraction reagent (BPER) buffer (Thermo Scientific, Waltham, MA, USA, Cat# 78243) containing 2 μL/mL of 10 units/μL DNAse I (Boehringer Mannheim, Fremont, CA, USA, Cat # 776–785), and supernatant checked for expression of respective fusion peptides by WB. Following confirmation of expression, 5–20 μL of lysate expressing Gst fusion protein was first incubated with 20 μL of precleared glutathione sepharose in a final volume of 100 μL at 4 °C for 2 h with constant rotation. The sepharose beads were spun at 800× g for 2 min, and the pellet was washed 2–4 times with 100–200 μL of RIPA buffer (20 mM Tris-HCl (pH 7.5), 150 mM NaCl, 1 mM Na2EDTA, 1 mM EGTA, 1% NP-40, 1% sodium deoxycholate, 2.5 mM sodium pyrophosphate, 1 mM β-glycerophosphate, 1 mM Na3VO4, 1 µg/mL leupeptin) with 0.5 M NaCl. The beads were spun again as above, and mixed with 5–20 μL of E. coli lysate expressing His-TAT-HA CARP-1 peptides. The reactions were incubated further at 4 °C for 2 h with constant rotation. The peptide-bound sepharose beads were pelleted and washed with 100–200 μL of RIPA buffer with 0.1 M NaCl for 2–4 washes. In some cases, additional washes with 0.05 M NaCl buffer were carried out. After the final wash, the sepharose–protein complexes were spun, and then re-suspended in SDS loading buffer for electrophoresis on 12–15% SDS PAGE, followed by WB with appropriate antibodies.
We next carried out mutagenesis-based studies to map the interacting epitopes of CARP-1 and H2AX proteins. […]

| Compound | expression of CARP-1, phospho-JNK1/2, phospho-H2AX [1] | expression of CARP-1, phospho-JNK1/2, phospho-H2AX [2] | interaction of wild-type CARP-1 with γH2AX [3] | interaction of CARP-1 (Δ600–650) with γH2AX [3] |
| --- | --- | --- | --- | --- |
| COc1cccc2c1C(=O)c1c(O)c3c(c(O)c1C2=O)C[C@@](O)(C(=O)CO)C[C@@H]3O[C@H]1C[C@H](N)[C@H](O)[C@H](C)O1 [Adriamycin, doxorubicin, reference compound] | stimulated expression of CARP-1, phospho-JNK1/2, and phospho-H2AX in a time-dependent manner | stimulated expression of CARP-1, phospho-JNK1/2, and phospho-H2AX in a time-dependent manner | robust interaction of wild-type CARP-1 with γH2AX | abrogated CARP-1 interaction with γH2AX |
| O=C1N(Cc2ccccc2Cl)c2ccccc2C12NN=C(c1cccc(Cl)c1)S2 (centres unmarked) [CFM-4.16] | stimulated expression of CARP-1, phospho-JNK1/2, and phospho-H2AX in a time-dependent manner | stimulated expression of CARP-1, phospho-JNK1/2, and phospho-H2AX in a time-dependent manner | robust interaction of wild-type CARP-1 with γH2AX | abrogated CARP-1 interaction with γH2AX |
